# Settings: 20 °C
row,solubility [mM],Compound
1,2.79,ClC(Br)CBr (stereo not given)
2,1.87,BrCC(Br)Br

row,Compound,solubility [mM]
1,ClC(Br)C(Cl)Br (stereo not given),2.73

# Same assay, conditions: 24 °C
row,solubility [mM],Compound
1,6.3,FC(F)(Cl)CCl

# Same assay, conditions: 25 °C
row,Compound,solubility [mM]
1,CCI,25.1
2,ClC(Cl)C(Cl)(Cl)Cl,2.37
3,C=C(Cl)Cl,23.2
4,FC(F)(F)C(Cl)Cl,13.7
5,ClC(Cl)=C(Cl)Cl,1.21
6,ClCCBr,48.1
7,ClCC(Cl)Cl,33.1
8,CC(Cl)(Cl)Cl,11.2
9,FC(F)(F)C(Cl)Br (stereo not given),19.8
10,ClCC(Cl)(Cl)Cl,6.38
11,FC(F)(Br)C(F)(F)Br,0.0115
12,CCBr,82
13,FCCCl,296
14,CC(F)(Cl)Cl,3.59
15,CCCl,88
16,BrC(Br)C(Br)Br,1.91

# From the OPERA property sets (Mansouri et al. 2018)
